Reference: patent US20200215003A1, “PARENTERAL ADMINISTRATION OF TAPENTADOL” (GRÜNENTHAL GMBH, priority 2011, published 2020)
Structures can show the parent of a compound that is named as a salt.

Legend:
[1] = test system: CFA induced chronic inflammatory pain in rats; test: Complete Freund Adjuvant (CFA) induced chronic inflammatory pain (paw pressure test); assay type: in vivo; details: for ED50: Rattus norvegicus, ip, 0.25 h, chronic pain, 15 min p. appl.; for time at which the peak effect was reached: p. appl., timepoint of first measurement
Excerpt: (§1) The weight ratios of the components (a) and (b) that will lead to a supra-additive effect (synergistic effect) of the inventive pharmaceutical composition may be determined via the paw pressure test of Randall and Selitto as described in Arch. Int. Pharmacodyn., 1957, 111: 409 to 419, which is a model for inflammatory pain. The respective part of the literature is hereby incorporated by reference and forms part of the present disclosure. Accordingly, the weight ratios of the components (a) and (b) that will lead to a supra-additive effect (synergistic effect) of the inventive pharmaceutical composition were determined in a model of acute pain (A) and a model of chronic pain (B).
Chronic inflammation was induced by an intraplantar injection of 0.05 mL of a CFA solution (Mycobacterium tuberculosis, H37 Ra, Difco Laboratories, Detroit, Mich., U.S.A.; 1 mg/mL in mineral oil) into one hind paw. The mechanical nociceptive threshold is measured before (prevalue) and one day after CFA injection using an Algesiometer (Ugo Basile, Italy). The device generates a mechanical force with a linear increase over time. The force is applied to the dorsal surface of the inflamed rat hind paw via a cone-shaped stylus with a rounded tip (2 mm tip diameter). The nociceptive threshold is defined as the force (in grams) at which the rat vocalises (cut-off force 450 g). The mechanical nociceptive threshold is measured at different timepoints after the drug or vehicle administration. The antinociceptive and antihyperalgesic activity of the tested substance is expressed as percentages of the maximal possible effect (%MPE). The maximal possible effect is defined as the percentage of prevalue withdrawal treshold before CFA-injection. The group size is n=10.
(§2) The analysis of the results with respect to a supra-additive effect of the inventive pharmaceutical composition comprising the components (a) and (b) was carried out via statistical comparison of the theoretical additive ED50-value with the experimentally determined ED50-value of a so-called fixed ratio combination (isobolographic analysis according to Tallarida J T, Porreca F, and Cowan A. Statistical analysis of drug-drug and site-site interactions with isobolograms. Life Sci. 1989; 45: 947-961). The interactions studies presented herein were performed using equieffective doses of the two components, calculated from the ratio of the respective ED50 values of the components if administered alone.

[2] = test system: carrageenan induced acute inflammatory pain in rats; test: carrageenan induced acute inflammatory pain (paw pressure test); assay type: in vivo; details: for ED50: Rattus norvegicus, 0.25 h, acute pain, 15 min p. appl.; for time at which the peak effect was reached: p. appl., timepoint of first measurement
Excerpt: as §1
Acute inflammation was induced by injection of a 0.1 ml carrageenan solution (0.5% in distilled water) subcutaneously into the plantar surface of the right hind paw of the rat. The mechanical nociceptive threshold was measured using an Algesiometer (Ugo Basile, Italy). The device generates a mechanical force with a linear increase over time. The force was applied to the dorsal surface of the inflamed hind paw via a cone-shaped stylus with a rounded tip (3 mm^2). The nociceptive threshold (Tv) was defined as the force at which the rat vocalises (cut-off force 450 g). Compounds or vehicle were given 3 h after carrageenan injection. The mechanical nociceptive threshold was measured at different times after the drug or vehicle administration. The drug effects are expressed as percentages of the maximal possible effect (MPE) based on the following formula: %MPE=(Tv drug−Tv control)/(cut-off−Tv control)×100. The group size is n=12.
as §2

[3] = target: recombinantly produced μ-opioid receptor (Homo sapiens, UniProt P35372); details: compared with morphine; cited from earlier work
recombinantly produced μ-opioid receptor, sequence (P35372 whole entry): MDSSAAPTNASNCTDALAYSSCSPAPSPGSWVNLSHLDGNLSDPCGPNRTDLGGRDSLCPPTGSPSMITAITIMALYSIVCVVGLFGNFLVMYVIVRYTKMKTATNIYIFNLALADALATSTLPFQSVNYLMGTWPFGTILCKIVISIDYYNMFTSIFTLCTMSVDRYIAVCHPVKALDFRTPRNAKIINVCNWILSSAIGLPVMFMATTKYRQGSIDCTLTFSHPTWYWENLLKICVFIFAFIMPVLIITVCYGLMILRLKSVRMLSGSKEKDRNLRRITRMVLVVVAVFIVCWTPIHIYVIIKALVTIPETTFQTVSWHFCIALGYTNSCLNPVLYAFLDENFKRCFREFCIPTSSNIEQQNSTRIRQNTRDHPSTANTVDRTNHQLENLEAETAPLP

[4] = test system: diabetic hyperalgesia in male C57/BL/6 mice; test: streptozotocin-induced diabetic heat hyperalgesia, hot plate 50 °C; assay type: in vivo
[5] = clinical studies, compared with morphine; cited from earlier work

Row | SMILES | ED50 [1] [mg/kg] | time at which the peak effect was reached [1] [min] | ED50 ([2]; ip) [mg/kg] | time at which the peak effect was reached [2] [min] | affinity to the recombinantly produced μ-opioid receptor relative to morphine [3] [times less] | combined intrathecal and intracerebroventricular ED 50 compared to theoretical additive effects ([4]; FIG. 7, p <0.001) | ED-50 ([4]; combination of intrathecal and intracerebroventricular administration, threshold values after 15 minutes) | ED-50 ([4]; intracerebroventricular administration, thermal hyperalgesia threshold values after 15 minutes) | inhibition of diabetic heat hyperalgesia ([4]; intracerebroventricular, 0.1, 0.3 and 1.00 μg (FIGS. 3 and 4)) | ED-50 ([4]; intrathecal administration, thermal hyperalgesia threshold values after 15 minutes) | inhibition of diabetic heat hyperalgesia ([4]; intrathecal plus intracerebroventricular, simultaneously (FIGS. 5 and 6)) | inhibition of diabetic heat hyperalgesia ([4]; intrathecal, 0.316, 1.00 and 3.16 μg (FIGS. 1 and 2)) | pain-alleviating action relative to morphine [5] | ED50 ([2]; iv) [mg/kg]
1 | CCN(CC)CC(=O)Nc1c(C)cccc1C [Lidocaine, lidocaine hydrochloride] | 26.8 | 15 | 32.4 | 15 |  |  |  |  |  |  |  |  |  | 
2 | CC[C@@H](c1cccc(O)c1)[C@@H](C)CN(C)C [tapentadol, (1 R,2R)-3-(3-dimethylamino-1-ethyl-2-methyl-propyl)-phenol] | 6.34 | 15 |  | 15 | 18 | synergistically better | 0.053 (0.032-0.074) mg/animal | 0.18 (0.14-0.22) mg/animal | dose-dependent inhibition | 0.42 (0.26-0.58) mg/animal | dose-dependent inhibition | dose-dependent inhibition | two to three times less | 1.75
